From patent US20100216751A1 (priority 2007, published 2010)
Counter-ions that a name gives are not always drawn.

Assay: Solubility of bevirimat and bevirimat dimeglumine in single vehicles
Conditions: in 100% water, 100% saline, 100% dextrose, 100% PEG 400, and 25% Poloxamer 188

C=C(C)[C@@H]1CC[C@]2(C(=O)O)CC[C@]3(C)[C@H](CC[C@@H]4[C@@]5(C)CC[C@H](OC(=O)CC(C)(C)C(=O)O)C(C)(C)[C@@H]5CC[C@]43C)[C@@H]12 [Bevirimat dimeglumine, di-N-methylglucamine salt of 3-O-(3′,3′-dimethylsuccinyl)betulinic acid]
solubility (in words): limited solubility
